Experimental data as given in patent US6469000B1, “1,3-diheterocyclic metalloprotease inhibitors” (The Procter & Gamble Co., priority 1996, dated 2002).

Key:
Type in all cases: in vivo
[1] = tested on: human subject suffering from osteoarthritis; assay: Example B: capsule given daily to a subject with osteoarthritis; details: capsule containing 70 mg of Example 3 daily for 5 years, 90 kg person
Protocol: A capsule for oral administration, according to the present invention, is made comprising:
A human subject weighing 90 kg (198 lbs), suffering from osteoarthritis, is treated by a method of this invention. Specifically, for 5 years, a capsule containing 70 mg of Example 3 is administered daily to said subject.

[2] = tested on: patient suffering from chemical burns; assay: Example D: topical composition applied to chemical burns; details: 0.20% w/v Compound of Example 3, topical, at each dressing change (b.i.d.)
From the text: An topical composition for local administration, according to the present invention, is made comprising:
A patient suffering from chemical burns applies the composition at each dressing change (b.i.d.).

[3] = tested on: human subject suffering from rheumatoid arthritis; assay: Example A: tablets given orally to a subject with rheumatoid arthritis; details: tablet with 15 mg Example 9, three tablets per day orally for 2 years, 60 kg person
Protocol: A tablet composition for oral administration, according to the present invention, is made comprising:
A human subject weighing 60 kg (132 lbs), suffering from rheumatoid arthritis, is treated by a method of this invention. Specifically, for 2 years, a regimen of three tablets per day is administered orally to said subject.

Structure (SMILES) | erosion/fibrillation of the articular cartilage, examined via orthoscopy [1] | scarring after chemical burns [2] | inflammation at the end of the treatment period [3] | mobility at the end of the treatment period [3]
COc1ccc(S(=O)(=O)N2CCCN(S(C)(=O)=O)C2C(=O)NO)cc1 (racemic) [Example 3, N-hydroxy 1-[(4-methoxyphenyl)sulfonyl]-3-[methylsulphonyl]-hexahydro-pyrimidine-2(R, S)-carboxamide] | no further advancement of erosion/fibrillation of the articular cartilage | substantially diminished | – | –
COc1ccc(S(=O)(=O)N2CC(C)(C)C(=O)N(Cc3ccccc3)C2C(=O)NO)cc1 (stereo not shown) [Example 9, N-hydroxy-1-[(4-methoxyphenyl)sulfonyl]-3-phenylmethyl-4-oxo-5,5-dimethyl-hexahydro-pyrimidin-2-carboxamide] | – | – | reduced inflammation | improved mobility without concomitant pain
